Columns and labels:
Format in all cases: in vivo
[1] = test system: Myzus persicae (Green Peach Aphid); assay: Example B8: Myzus persicae (green peach aphid), intrinsic activity; conditions: 120 h, test rate 12 ppm, sucrose solution, 24-well, 5 days after infestation
From the text: Example B8: Myzus persicae (Green Peach Aphid), Intrinsic Activity
Test compounds prepared from 10,000 ppm DMSO stock solutions were applied by pipette into 24-well microtiter plates and mixed with sucrose solution. The plates were closed with a stretched Parafilm. A plastic stencil with 24 holes was placed onto the plate and infested pea seedlings were placed directly on the Parafilm. The infested plate was closed with a gel blotting paper and another plastic stencil and then turned upside down. The samples were assessed for mortality 5 days after infestation.

[2] = test system: Myzus persicae (Green Peach Aphid); assay: Example B13: activity against Myzus persicae (green peach aphid), 96-well sucrose solution; conditions: 120 h, application rate 50 ppm, 5 days after infestation
From the text: Example B13: Activity Against Myzus persicae (Green Peach Aphid)
Test compounds prepared from 10,000 ppm DMSO stock solutions were applied by a liquid handling robot into 96-well microtiter plates and mixed with a sucrose solution. Parafilm was stretched over the 96-well microtiter plate and a plastic stencil with 96 holes was placed onto the plate. Aphids were sieved into the wells directly onto the Parafilm. The infested plates were closed with a gel blotting card and a second plastic stencil and then turned upside down. The samples were assessed for mortality 5 days after infestation.

[3] = test system: Plutella xylostella (Diamondback Moth); assay: Example B14: activity against Plutella xylostella (diamondback moth), 96-well artificial diet; conditions: 216 h, application rate 500 ppm, 9 days after infestation
Procedure: Example B14: Activity Against Plutella xylostella (Diamondback Moth)
96-well microtiter plates containing artificial diet were treated with aqueous test solutions, prepared from 10,000 ppm DMSO stock solutions, by a liquid handling robot. After drying, eggs (30 per well) were infested onto a netted lid which was suspended above the diet. The eggs hatch and L1 larvae move down to the diet. The samples were assessed for mortality 9 days after infestation.
The following compounds gave an effect of at least 80% average mortality at an application rate of 500 ppm: […]

[4] = test system: Plutella xylostella (Diamond Back Moth); assay: Example B5: Plutella xylostella (diamond back moth), artificial diet, 24-well, eggs; conditions: 192 h, application rate 200 ppm, 8 days after infestation, read-out: effect in at least one of the two categories (mortality or growth inhibition)
Procedure: Example B5: Plutella xylostella (Diamond Back Moth)
24-well microtiter plates with artificial diet were treated with aqueous test solutions prepared from 10,000 ppm DMSO stock solutions by pipetting. After drying, Plutella eggs were pipetted through a plastic stencil onto a gel blotting paper and the plate was closed with it. The samples were assessed for mortality and growth inhibition in comparison to untreated samples 8 days after infestation. The following compounds gave an effect of at least 80% in at least one of the two categories (mortality or growth inhibition) at an application rate of 200 ppm: […]

[5] = test system: Diabrotica Balteata (Corn Root Worm); assay: Example B1: Diabrotica balteata (corn root worm), maize sprouts sprayed, L2 larvae; conditions: 96 h, application rate 200 ppm, 4 days after infestation, read-out: effect in at least one of the two categories (mortality or growth inhibition)
Procedure: Example B1: Diabrotica Balteata (Corn Root Worm)
Maize sprouts placed onto an agar layer in 24-well microtiter plates were treated with aqueous test solutions prepared from 10,000 ppm DMSO stock solutions by spraying. After drying, the plates were infested with L2 larvae (6 to 10 per well). The samples were assessed for mortality and growth inhibition in comparison to untreated samples 4 days after infestation.
(§1) The following compounds gave an effect of at least 80% in at least one of the two categories (mortality or growth inhibition) at an application rate of 200 ppm: […]

[6] = test system: Spodoptera littoralis (Egyptian Cotton Leaf Worm); assay: Example B9: Spodoptera littoralis (Egyptian cotton leaf worm), cotton leaf discs sprayed, L1 larvae; conditions: foliar, 72 h, application rate 200 ppm, 3 days after infestation
Procedure: Example B9: Spodoptera littoralis (Egyptian Cotton Leaf Worm)
Cotton leaf discs were placed onto agar in 24-well microtiter plates and sprayed with aqueous test solutions prepared from 10,000 ppm DMSO stock solutions. After drying the leaf discs were infested with five L1 larvae. The samples were assessed for mortality, anti-feeding effect, and growth inhibition in comparison to untreated samples 3 days after infestation. Control of Spodoptera littoralis by a test sample is given when at least one of the three categories (i.e. mortality, anti-feedant effect, and growth inhibition) is higher than the untreated sample.

[7] = test system: Euschistus heros (Neotropical Brown Stink Bug); assay: Example B2: Euschistus heros (neotropical brown stink bug), soybean leaves sprayed, N2 nymphs; conditions: 120 h, application rate 200 ppm, 5 days after infestation, read-out: effect in at least one of the two categories (mortality or growth inhibition)
Procedure: Example B2: Euschistus heros (Neotropical Brown Stink Bug)
Soybean leaves on agar in 24-well microtiter plates were sprayed with aqueous test solutions prepared from 10,000 ppm DMSO stock solutions. After drying the leaves were infested with N2 nymphs. The samples were assessed for mortality and growth inhibition in comparison to untreated samples 5 days after infestation.
as §1

[8] = test system: Chilo suppressalis (Striped Rice Stemborer); assay: Example B4: Chilo suppressalis (striped rice stemborer), artificial diet, L2 larvae; conditions: 144 h, application rate 200 ppm, 6 days after infestation
Procedure: Example B4: Chilo suppressalis (Striped Rice Stemborer)
24-well microtiter plates with artificial diet were treated with aqueous test solutions prepared from 10,000 ppm DMSO stock solutions by pipetting. After drying, the plates were infested with L2 larvae (6-8 per well). The samples were assessed for mortality, anti-feeding effect, and growth inhibition in comparison to untreated samples 6 days after infestation. Control of Chilo suppressalis by a test sample is given when at least one of the categories (i.e. mortality, anti-feedant effect, and growth inhibition) is higher than the untreated sample.

CC(c1ncnn1-c1ncccn1)N(CC1CC1)C(=O)c1cccc(C2(C#N)CC2)c1 (stereo not drawn) [P21, 3-(1-cyanocyclopropyl)-N-(cyclopropylmethyl)-N-[1-(2-pyrimidin-2-yl-1,2,4-triazol-3-yl)ethyl]benzamide]
≥ 80%: mortality at 12 ppm [1] | mortality at 50 ppm [2] | mortality at 500 ppm [3]

CC(c1ncnn1-c1ncccn1)N(CC1CC1)C(=O)c1cccc(C2CC2C(F)(F)F)c1 (stereo not drawn) [P23, N-(cyclopropylmethyl)-N-[1-(2-pyrimidin-2-yl-1,2,4-triazol-3-yl)ethyl]-3-[2-(trifluoromethyl)cyclopropyl]benzamide]
≥ 80%: percent effect (mortality or growth inhibition) at 200 ppm [4] | mortality at 12 ppm [1] | mortality at 50 ppm [2] | mortality at 500 ppm [3]

CC(c1ncnn1-c1ncccn1)N(CC1CC1)C(=O)c1cc(C(F)(F)F)cc(C2(C#N)CC2)n1 (stereo not drawn) [P33, 6-(1-cyanocyclopropyl)-N-(cyclopropylmethyl)-N-[1-(2-pyrimidin-2-yl-1,2,4-triazol-3-yl)ethyl]-4-(trifluoromethyl)pyridine-2-carboxamide]
≥ 80%: percent effect (mortality or growth inhibition) at 200 ppm [5] | percent effect (mortality or growth inhibition) at 200 ppm [4] | mortality at 50 ppm [2] | mortality at 500 ppm [3]

CC(c1ncnn1-c1ncccn1)N(CC1CC1)C(=O)c1cccc(C(F)(F)C2CC2)c1 (stereo not drawn) [P40, 3-[cyclopropyl(difluoro)methyl]-N-(cyclopropylmethyl)-N-[1-(2-pyrimidin-2-yl-1,2,4-triazol-3-yl)ethyl]benzamide]
≥ 80%: percent effect (mortality or growth inhibition) at 200 ppm [5] | percent effect (mortality or growth inhibition) at 200 ppm [4] | percent control (mortality, anti-feedant effect or growth inhibition) at 200 ppm [6] | mortality at 50 ppm [2] | mortality at 500 ppm [3]

CC(c1ncnn1-c1ncccn1)N(CC1CC1)C(=O)c1cc(C(F)(F)F)cc(C2(C(F)(F)F)CC2(F)F)c1 (stereo not drawn) [P41, N-(cyclopropylmethyl)-3-[2,2-difluoro-1-(trifluoromethyl)cyclopropyl]-N-[1-(2-pyrimidin-2-yl-1,2,4-triazol-3-yl)ethyl]-5-(trifluoromethyl)benzamide]
≥ 80%: percent effect (mortality or growth inhibition) at 200 ppm [5] | percent effect (mortality or growth inhibition) at 200 ppm [7] | percent effect (mortality or growth inhibition) at 200 ppm [4] | percent control (mortality, anti-feedant effect or growth inhibition) at 200 ppm [6] | mortality at 500 ppm [3]

CC(c1ncnn1-c1ncccn1)N(CC1CC1)C(=O)c1cc(C(F)(F)F)cc(C2(C)CC2(F)F)c1 (stereo not drawn) [P44, N-(cyclopropylmethyl)-3-(2,2-difluoro-1-methyl-cyclopropyl)-N-[1-(2-pyrimidin-2-yl-1,2,4-triazol-3-yl)ethyl]-5-(trifluoromethyl)benzamide]
≥ 80%: percent effect (mortality or growth inhibition) at 200 ppm [5] | percent effect (mortality or growth inhibition) at 200 ppm [7] | percent effect (mortality or growth inhibition) at 200 ppm [4] | percent control (mortality, anti-feedant effect or growth inhibition) at 200 ppm [6] | mortality at 50 ppm [2] | mortality at 500 ppm [3]

CC(c1ncnn1-c1ncccn1)N(CC1CC1)C(=O)c1cc(OC2CC2)cc(C(F)(F)F)c1 (stereo not drawn) [P51, 3-(cyclopropoxy)-N-(cyclopropylmethyl)-N-[1-(2-pyrimidin-2-yl-1,2,4-triazol-3-yl)ethyl]-5-(trifluoromethyl)benzamide]
≥ 80%: percent effect (mortality or growth inhibition) at 200 ppm [5] | percent effect (mortality or growth inhibition) at 200 ppm [4] | percent control (mortality, anti-feedant effect or growth inhibition) at 200 ppm [6] | mortality at 50 ppm [2] | mortality at 500 ppm [3]

CC(c1ncnn1-c1ncccn1)N(CC1CC1)C(=O)c1cc(C(F)(F)F)nc(S(C)(=O)=O)c1 (stereo not drawn) [P53, N-(cyclopropylmethyl)-2-methylsulfonyl-N-[1-(2-pyrimidin-2-yl-1,2,4-triazol-3-yl)ethyl]-6-(trifluoromethyl)pyridine-4-carboxamide]
≥ 80%: percent effect (mortality or growth inhibition) at 200 ppm [7]

CC(c1ncnn1-c1ncccn1)N(CC1CC1)C(=O)c1cc(OC2CC2)cc(OC2CC2)c1 (stereo not drawn) [P60, 3,5-bis(cyclopropoxy)-N-(cyclopropylmethyl)-N-[1-(2-pyrimidin-2-yl-1,2,4-triazol-3-yl)ethyl]benzamide]
≥ 80%: percent effect (mortality or growth inhibition) at 200 ppm [5] | percent effect (mortality or growth inhibition) at 200 ppm [4] | mortality at 50 ppm [2] | mortality at 500 ppm [3]

CC(NC(=O)c1cc(C(F)(F)F)cc(C(F)(F)C2CCC2)c1)c1ncnn1-c1ncccn1 (stereo not drawn) [P66, 3-[cyclobutyl(difluoro)methyl]-N-[1-(2-pyrimidin-2-yl-1,2,4-triazol-3-yl)ethyl]-5-(trifluoromethyl)benzamide]
≥ 80%: percent control (mortality, anti-feedant effect or growth inhibition) at 200 ppm [8]

CC(NC(=O)c1cc(-c2ccc(C(F)(F)F)cc2)cc(C(F)(F)F)c1)c1ncnn1-c1ncccn1 (stereo not drawn) [P67, N-[1-(2-pyrimidin-2-yl-1,2,4-triazol-3-yl)ethyl]-3-(trifluoromethyl)-5-[4-(trifluoromethyl)phenyl]benzamide]
≥ 80%: percent effect (mortality or growth inhibition) at 200 ppm [5] | percent control (mortality, anti-feedant effect or growth inhibition) at 200 ppm [8] | percent effect (mortality or growth inhibition) at 200 ppm [4] | mortality at 50 ppm [2]

CC(NC(=O)c1cc(-c2cccc(C(F)(F)F)c2)cc(C(F)(F)F)c1)c1ncnn1-c1ncccn1 (stereo not drawn) [P68, N-[1-(2-pyrimidin-2-yl-1,2,4-triazol-3-yl)ethyl]-3-(trifluoromethyl)-5-[3-(trifluoromethyl)phenyl]benzamide]
≥ 80%: percent effect (mortality or growth inhibition) at 200 ppm [5] | percent control (mortality, anti-feedant effect or growth inhibition) at 200 ppm [8] | percent effect (mortality or growth inhibition) at 200 ppm [4] | percent control (mortality, anti-feedant effect or growth inhibition) at 200 ppm [6] | mortality at 50 ppm [2]

CC(NC(=O)c1cc(-c2ccccc2C(F)(F)F)cc(C(F)(F)F)c1)c1ncnn1-c1ncccn1 (stereo not drawn) [P69, N-[1-(2-pyrimidin-2-yl-1,2,4-triazol-3-yl)ethyl]-3-(trifluoromethyl)-5-[2-(trifluoromethyl)phenyl]benzamide]
≥ 80%: percent effect (mortality or growth inhibition) at 200 ppm [5] | percent control (mortality, anti-feedant effect or growth inhibition) at 200 ppm [8] | percent effect (mortality or growth inhibition) at 200 ppm [4] | percent control (mortality, anti-feedant effect or growth inhibition) at 200 ppm [6] | mortality at 50 ppm [2]

CC(NC(=O)c1cc(C2CC2)cc(C(F)(F)F)c1)c1ncnn1-c1ccc(Br)cn1 (stereo not drawn) [P74, N-[1-[2-(5-bromo-2-pyridyl)-1,2,4-triazol-3-yl]ethyl]-3-cyclopropyl-5-(trifluoromethyl)benzamide]
≥ 80%: percent effect (mortality or growth inhibition) at 200 ppm [5] | percent control (mortality, anti-feedant effect or growth inhibition) at 200 ppm [8] | percent effect (mortality or growth inhibition) at 200 ppm [4] | percent control (mortality, anti-feedant effect or growth inhibition) at 200 ppm [6]

CC(NC(=O)c1cc(C(F)(F)F)cc(C2(C#N)CC2)c1)c1ncnn1-c1ccccn1 (stereo not drawn) [P76, 3-(1-cyanocyclopropyl)-N-[1-[2-(2-pyridyl)-1,2,4-triazol-3-yl]ethyl]-5-(trifluoromethyl)benzamide]
≥ 80%: percent effect (mortality or growth inhibition) at 200 ppm [5] | percent control (mortality, anti-feedant effect or growth inhibition) at 200 ppm [8] | percent effect (mortality or growth inhibition) at 200 ppm [4] | percent control (mortality, anti-feedant effect or growth inhibition) at 200 ppm [6]
